Test results: patent US10413505B1, “Pharmaceutical compositions and methods of using the same” (priority 2017, dated 2019)
Where a name gives a salt, the structure may show the parent alone. Read-outs that look alike come from different tables or passages of the source.

Experiments:
[1] = test system: subjects undergoing diagnostic procedures and surgeries on or through the mucous membranes of the nasal cavities
From the text: Example 8 was a randomized, prospective, double-blind, multicenter, single-dose, placebo and dose-controlled, parallel-group study to evaluate the safety of the 4% and 8% cocaine hydrochloride pharmaceutical compositions as described in Example 4 used as a local anesthetic for diagnostic procedures and surgeries on or through the mucous membranes of the nasal cavities (e.g., nasal/sinus endoscopy, sinusotomy, fracture nasal turbinate(s), lysis intranasal synechia, insertion of nasal septal prosthesis, intranasal biopsy, excision of nasal polyps, excision turbinate(s), removal of an intranasal foreign body, septoplasty, or sinus debridement). […] The study consisted of a screening period within 14 days of a diagnostic procedure or surgery; a treatment period on the day of the diagnostic procedure or surgery (Day 1); and a follow-up visit (Day 8).
Two saturated pledgets were placed into each nasal cavity and up against the septum for 20 minutes. After 20 minutes the pledgets were removed from the subjects.
To address the potential for the impact of body weight on efficacy and safety, the study conducted the following additional analyses: • Analysis of efficacy (primary endpoint) for 2 subgroups of low weight subjects: <50 kg and <60 kg (see Table 53) • Analysis of safety (AEs) for 2 subgroups of low weight subjects: <50 kg and <60 kg (see Table 54) • Analysis of safety (AEs) for 2 subgroups of subjects based on dose determined on a mg/kg basis (regardless of 4% or 8% dose): ≤3 mg/kg or >3 mg/kg) (Table 55) Note: There is overlap between the body weight groups examined because the <60 kg group has no lower limit of weight.

[2] = test system: Sprague Dawley rats; assay: Example 10 cocaethylene HCl intranasal toxicity, Single-Dose Phase; assay type: in vivo, rat
Description: Cocaethylene HCl in the vehicle (deionized water) was administered by intranasal instillation once to a group (Group 2) of Sprague Dawley rats at a dose level of 2.1 mg/kg. […] The dose volume was 0.22 mL/kg, divided between the 2 nares, for both groups. Groups 1 and 2 each consisted of 20 animals/sex. Following dose administration, 10 animals/sex/group were euthanized on Study Day 1; the remaining 10 animals/sex/group were euthanized following a 14-day non-dosing (recovery) period. Criteria for evaluation included daily mortality observations, daily clinical observations, detailed physical observations, body weights, food consumption, clinical pathology (hematology, coagulation, serum chemistry, and urinalysis), organ weights, gross pathology, and microscopic examination of select tissues.
(§1) The vehicle and test article formulations were administered by intranasal instillation into each naris via a syringe equipped with stainless steel-shafted, stainless steel ball-tipped dosing cannula once (Single-Dose Phase) or once daily for 14 consecutive days (Repeat-Dose Phase), through the day prior to the primary necropsy. The same syringe and dosing cannula was used to administer the dose across both nares for a given animal on a given dosing day. The total dose volume administered per dose was split approximately equally across each naris, such that approximately half of the total dose volume was administered into one naris, and the remaining was administered into the other naris. Treatment administration across each naris for an individual animal occurred at approximately the same time. The dose volume for all groups was 0.22 mL/kg. Individual doses were based on the most recently recorded body weights. Adjusted doses became effective the day of collection of the weekly body weights. The first day of dosing was Study Day 0; the first week of dosing was Study Week 0.
(§2) All animals were observed twice daily, once in the morning and once in the afternoon, for mortality and moribundity.
(§3) Clinical examinations were performed at the time of dose administration and 1 to 2 hours following dose administration. During the recovery period, the animals were observed once daily. The absence or presence of findings was recorded for individual animals at the scheduled intervals. For the Single-Dose Phase, detailed physical examinations were conducted on all animals within 4 days of receipt, on the day of randomization, and on Study Days 0, 1, 7, and 14. For the Repeat-Dose Phase, detailed physical examinations were conducted on all animals within 4 days of receipt, on the day of randomization, weekly (±2 days) during the study period, and on the day of the scheduled necropsies. Daily observations during the recovery period were not necessary on days when detailed physical examinations were conducted.
(§4) Individual body weights were recorded within 4 days of receipt, on the day of randomization, Study Day 0 (prior to dosing), weekly (±2 days) during the study period, and on the day prior to the scheduled necropsies (nonfasted). Mean body weights and mean body weight changes were calculated for the corresponding intervals. Final body weights (fasted) were recorded on the day of the scheduled necropsies.
(§5) Cage food weights were recorded once weekly (±2 days) beginning following randomization and throughout the study period. Food consumption was calculated as g/animal/day for the corresponding body weight intervals.
(§6) Blood and urine samples for clinical pathology evaluations (hematology, coagulation, serum chemistry, and urinalysis) were collected from all animals assigned to the scheduled necropsies. The animals were fasted overnight prior to blood collection while in metabolism cages for urine collection. Blood was collected from a jugular vein and from the vena cava at the time of necropsy. Blood was collected into tubes containing potassium K2EDTA (hematology), sodium citrate (coagulation), or no anticoagulant (serum chemistry). […]

[3] = test system: Sprague Dawley rats; assay: Example 10 cocaethylene HCl intranasal toxicity, Repeat-Dose Phase; assay type: in vivo, rat
Description: Cocaethylene hydrochloride in the vehicle was administered by intranasal instillation once daily for 14 days to a group (Group 2) of Sprague Dawley rats at a dosage level of 2.1 mg/kg/day. […] The dose volume was 0.22 mL/kg, divided between the 2 nares, for both groups. Groups 1 and 2 each consisted of 15 animals/sex. Following 14 days of dose administration, 10 animals/sex/group were euthanized; the remaining […] animals/sex/group were euthanized following a 14-day nondosing (recovery) period. Criteria for evaluation included daily mortality observations, daily clinical observations, detailed physical observations, body weights, food consumption, clinical pathology (hematology, coagulation, serum chemistry, and urinalysis), organ weights, gross pathology, and microscopic examination of select tissues.
as §1, §2, §3, §4, §5, §6

[4] = 2.1 mg/kg once, intranasal instillation
[5] = 2.1 mg/kg/day for 14 days, intranasal instillation

COC(=O)[C@H]1[C@@H](OC(=O)c2ccccc2)C[C@@H]2CC[C@H]1N2C [Cocaine HCl]
Adverse events: Anxiety ([1]; >3% mg/kg): 2 (0.8) n (%)
Adverse events: Dermatitis allergic ([1]; >3% mg/kg): 1 (0.4) n (%)
Adverse events: Dizziness ([1]; >3% mg/kg): 1 (0.4) n (%)
Adverse events: Dysphonia ([1]; >3% mg/kg): 0 n (%)
Adverse events: Epistaxis ([1]; >3% mg/kg): 2 (0.8) n (%)
Adverse events: Eye disorders ([1]; >3% mg/kg): 1 (0.4) n (%)
Adverse events: Facial pain ([1]; >3% mg/kg): 1 (0.4) n (%)
Adverse events: Fatigue ([1]; >3% mg/kg): 0 n (%)
Adverse events: Foreign body sensation in eyes ([1]; >3% mg/kg): 1 (0.4) n (%)
Adverse events: Gastrointestinal disorders ([1]; >3% mg/kg): 1 (0.4) n (%)
Adverse events: General disorders and administration site conditions ([1]; >3% mg/kg): 1 (0.4) n (%)
Adverse events: Headache ([1]; >3% mg/kg): 4 (1.6) n (%)
Adverse events: Hypertension ([1]; >3% mg/kg): 0 n (%)
Adverse events: Injury, poisoning and procedural complications ([1]; >3% mg/kg): 1 (0.4) n (%)
Adverse events: Lip swelling ([1]; >3% mg/kg): 1 (0.4) n (%)
Adverse events: Masculoskeletal and connective tissue disorders ([1]; >3% mg/kg): 1 (0.4) n (%)
Adverse events: Medication error ([1]; >3% mg/kg): 1 (0.4) n (%)
Adverse events: Nasal congestion ([1]; >3% mg/kg): 1 (0.4) n (%)
Adverse events: Nausea ([1]; >3% mg/kg): 0 n (%)
Adverse events: Neck pain ([1]; >3% mg/kg): 1 (0.4) n (%)
Adverse events: Nervous system disorders ([1]; >3% mg/kg): 5 (2.0) n (%)
Adverse events: Psychiatric disorders ([1]; >3% mg/kg): 2 (0.8) n (%)
Adverse events: Respiratory, thoracic and mediastinal disorders ([1]; >3% mg/kg): 3 (1.2) n (%)
Adverse events: Rhinorrhea ([1]; >3% mg/kg): 0 n (%)
Adverse events: Skin and subcutaneous tissue disorders ([1]; >3% mg/kg): 2 (0.8) n (%)
Adverse events: Sneezing ([1]; >3% mg/kg): 0 n (%)
Adverse events: Upper-airway cough syndrome ([1]; >3% mg/kg): 0 n (%)
Adverse events: Vascular disorders ([1]; >3% mg/kg): 0 n (%)
Adverse events: Vision blurred ([1]; >3% mg/kg): 0 n (%)
Any AE ([1]; >3% mg/kg): 14 (5.7) n (%)
Adverse events: Cold sweat ([1]; >3% mg/kg, under General disorders and administration site conditions): 0 n (%)
Adverse events: Cold sweat ([1]; >3% mg/kg, under Skin and subcutaneous tissue disorders): 1 (0.4) n (%)
Adverse events: Anxiety ([1]; ≤3 mg/kg): 0 n (%)
Adverse events: Dermatitis allergic ([1]; ≤3 mg/kg): 0 n (%)
Adverse events: Dizziness ([1]; ≤3 mg/kg): 1 (0.3) n (%)
Adverse events: Dysphonia ([1]; ≤3 mg/kg): 1 (0.3) n (%)
Adverse events: Epistaxis ([1]; ≤3 mg/kg): 3 (1.0) n (%)
Adverse events: Eye disorders ([1]; ≤3 mg/kg): 1 (0.3) n (%)
Adverse events: Facial pain ([1]; ≤3 mg/kg): 0 n (%)
Adverse events: Fatigue ([1]; ≤3 mg/kg): 1 (0.3) n (%)
Adverse events: Foreign body sensation in eyes ([1]; ≤3 mg/kg): 0 n (%)
Adverse events: Gastrointestinal disorders ([1]; ≤3 mg/kg): 1 (0.3) n (%)
Adverse events: General disorders and administration site conditions ([1]; ≤3 mg/kg): 2 (0.7) n (%)
Adverse events: Headache ([1]; ≤3 mg/kg): 7 (2.3) n (%)
Adverse events: Hypertension ([1]; ≤3 mg/kg): 1 (0.3) n (%)
Adverse events: Injury, poisoning and procedural complications ([1]; ≤3 mg/kg): 0 n (%)
Adverse events: Lip swelling ([1]; ≤3 mg/kg): 0 n (%)
Adverse events: Masculoskeletal and connective tissue disorders ([1]; ≤3 mg/kg): 0 n (%)
Adverse events: Medication error ([1]; ≤3 mg/kg): 0 n (%)
Adverse events: Nasal congestion ([1]; ≤3 mg/kg): 0 n (%)
Adverse events: Nausea ([1]; ≤3 mg/kg): 1 (0.3) n (%)
Adverse events: Neck pain ([1]; ≤3 mg/kg): 0 n (%)
Adverse events: Nervous system disorders ([1]; ≤3 mg/kg): 7 (2.3) n (%)
Adverse events: Psychiatric disorders ([1]; ≤3 mg/kg): 0 n (%)
Adverse events: Respiratory, thoracic and mediastinal disorders ([1]; ≤3 mg/kg): 6 (2.0) n (%)
Adverse events: Rhinorrhea ([1]; ≤3 mg/kg): 1 (0.3) n (%)
Adverse events: Skin and subcutaneous tissue disorders ([1]; ≤3 mg/kg): 0 n (%)
Adverse events: Sneezing ([1]; ≤3 mg/kg): 1 (0.3) n (%)
Adverse events: Upper-airway cough syndrome ([1]; ≤3 mg/kg): 0 n (%)
Adverse events: Vascular disorders ([1]; ≤3 mg/kg): 1 (0.3) n (%)
Adverse events: Vision blurred ([1]; ≤3 mg/kg): 1 (0.3) n (%)
Any AE ([1]; ≤3 mg/kg): 13 (4.3) n (%)
Adverse events: Cold sweat ([1]; ≤3 mg/kg, under General disorders and administration site conditions): 1 (0.3) n (%)
Adverse events: Cold sweat ([1]; ≤3 mg/kg, under Skin and subcutaneous tissue disorders): 0 n (%)

CCOC(=O)[C@@H]1C2CCC(C[C@@H]1OC(=O)c1ccccc1)N2C (stereo partly shown) [cocaethylene HCl, cocaethylene hydrochloride]
body weights [2, 4]: unaffected
clinical observations [2, 4]: no test article-related clinical observations
food consumption [2, 4]: unaffected
hematology and coagulation parameters [2, 4]: unaffected
macroscopic examination at necropsy [2, 4]: no test article-related macroscopic findings
organ weights [2, 4]: unaffected
serum chemistry parameters [2, 4]: unaffected
survival [2, 4]: All animals survived
urinalysis parameters [2, 4]: unaffected
microscopic examination (nasal cavity with turbinates) ([2]; 2.1 mg/kg once, intranasal instillation, also after 14-day recovery): No test article-related microscopic findings
pH of the dosing formulation ([2]; Single-Dose Phase, 9.6 mg/mL in deionized water, pH meter): 2.81
tolerability ([3]; 2.1 mg/kg once or once daily for 14 days, intranasal instillation): well tolerated
body weights [3, 5]: unaffected
clinical observations [3, 5]: no test article-related clinical observations
food consumption [3, 5]: unaffected
hematology and coagulation parameters [3, 5]: unaffected
macroscopic examination at necropsy [3, 5]: no test article-related macroscopic findings
organ weights [3, 5]: unaffected
serum chemistry parameters [3, 5]: unaffected
survival [3, 5]: All animals survived
urinalysis parameters [3, 5]: unaffected
microscopic examination (nasal cavity with turbinates) ([3]; 2.1 mg/kg/day for 14 days, intranasal instillation, also after 14-day recovery): No test article-related microscopic findings
pH of the dosing formulation ([3]; Repeat-Dose Phase, 9.6 mg/mL in deionized water, pH meter): 2.81
no-observed-effect level (NOEL) ([3]; intranasal instillation once or once daily for 14 days): 2.1 mg/kg/day
